Laboratory results reported in patent publication US9340577B2, “HLA binding motifs and peptides and their uses” (priority 1992, dated 2016).
No end group written: not given here.

Experiments:
Assay in all cases: biochemical
DRB1*1501 = DRB1*1501 (Homo sapiens, UniProt P01903+P01911); type: binding
DR7 (DRB1*0701) = DR7 (DRB1*0701) (Homo sapiens, UniProt P01903+P01911, A100R/A102G/A103Q/D57E/D86V/E43K/F76Y/K127E/L162R/M171V/P40G/Q125H/Q99D/R33Q/R42Y/R54Q/S133A/S66F/T210M/V115G/Y107V/Y59L/Y89S); type: binding
DRB1*1302 = DRB1*1302 (Homo sapiens, UniProt P01903+P01911, A100E/A169T/K41T/L162R/M171V/P40S/Q125H/Q178H/Q39Y/Q99D/R42S/S66N/T262R/V115G/W38E/Y61H); type: binding
Sequence of DRB1*1302 (P01903 26-254 limits assumed, other chains not shown): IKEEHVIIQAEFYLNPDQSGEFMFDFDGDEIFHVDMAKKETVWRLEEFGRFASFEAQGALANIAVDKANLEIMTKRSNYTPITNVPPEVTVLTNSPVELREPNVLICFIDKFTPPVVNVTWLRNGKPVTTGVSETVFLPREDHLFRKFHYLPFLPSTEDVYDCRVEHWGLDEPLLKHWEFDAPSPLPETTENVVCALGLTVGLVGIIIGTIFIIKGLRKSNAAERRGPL

DRB1*1201 = DRB1*1201 (Homo sapiens, UniProt P01903+P01911, A100R/A169T/D57E/D86V/F55L/H45Y/K41T/L162R/M171V/P40S/Q125H/Q178H/Q39Y/Q99D/R42G/S66L/T262R/V114A/V67L/W38E/Y59H/Y61H/Y89S); type: binding
DRB3*0101 = DRB3*0101 (Homo sapiens, UniProt P01903+P79483); type: binding
DRB1*0802 = DRB1*0802 (Homo sapiens, UniProt P01903+P01911, A100R/A103L/A169T/F76Y/H45Y/I96F/K41T/L162R/M171V/P40S/Q125H/Q178H/Q39Y/Q99D/R218S/R42G/S66Y/V115G/W38E); type: binding
DRB1*1101 = DRB1*1101 (Homo sapiens, UniProt P01903+P01911, A100R/A169T/A87E/I96F/K41T/L162R/M171V/P40S/Q125H/Q178H/Q39Y/Q99D/R42S/S66Y/T262R/V115G/W38E)
Sequence of DRB1*1101 (P01903 26-254 limits assumed, other chains not shown): as above

DR4w4 (DRB1*0401) = DR4w4 (DRB1*0401) (Homo sapiens, UniProt P01903+P01911, A100K/A169T/F76Y/I96L/K127E/L162R/M171V/N62H/P40V/Q125Y/R42H/S133A/S149N/S66Y/V115G/V209L/W38E); type: binding
DRB5*0101 = DRB5*0101 (Homo sapiens, UniProt P01903+Q30154)
DRB4*0101 = DRB4*0101 (Homo sapiens, UniProt P01903+P13762, G164S); type: binding
DRB1*0901 = DRB1*0901 (Homo sapiens, UniProt P01903+P01911, A100R/A103E/D57H/D86V/F55Y/F60I/F76Y/I96F/K127E/L162R/M171V/P40D/Q125H/Q99R/R33Q/R42F/S133A/S66N/T210M/V115G/W38K/Y107V/Y59G/Y89S); type: binding

CC(C)C[C@H](NC(=O)[C@H](CCC(N)=O)NC(=O)[C@H](C)NC(=O)[C@H](CC(N)=O)NC(=O)[C@H](CCCCN)NC(=O)[C@@H](NC(=O)[C@H](CCCCN)NC(=O)[C@H](CC(N)=O)NC(=O)CN)C(C)C)C(=O)N[C@@H](C)C(=O)NCC(=O)N[C@@H](C)C(=O)N[C@@H](CCCCN)C(=O)NCC(=O)N[C@H](C(=O)O)C(C)C [Peptide 68.0097]
IC50 (DRB1*1501): > 20 µM
IC50 (DR7 (DRB1*0701)): > 20 µM
IC50 (DRB1*1302): > 20 µM
IC50 (DRB1*1201): > 20 µM
IC50 (DRB3*0101): > 20 µM
IC50 (DRB1*0802): > 20 µM
IC50 (DRB1*1101; Binding affinity DRB1 *1101): > 20 µM

CC[C@H](C)[C@H](N)C(=O)N[C@@H](CO)C(=O)N[C@H](C(=O)N[C@H](C(=O)N[C@@H](CC(N)=O)C(=O)N[C@@H](CCC(=O)O)C(=O)N[C@@H](CC(=O)O)C(=O)NCC(=O)N[C@@H](CC(N)=O)C(=O)N[C@@H](CCC(=O)O)C(=O)N[C@H](C(=O)N[C@@H](Cc1ccccc1)C(=O)N[C@@H](CC(N)=O)C(=O)N[C@H](C(=O)N[C@@H](CO)C(=O)O)[C@@H](C)O)[C@@H](C)CC)[C@@H](C)CC)[C@@H](C)CC [Peptide 68.0166]
IC50 (DRB1*1501): 3.01 µM
IC50 (DR4w4 (DRB1*0401)): > 20 µM
IC50 (DR7 (DRB1*0701)): > 20 µM
IC50 (DRB5*0101; Binding affinity DRB5 *0101): > 20 µM
IC50 (DRB5*0101; DRB5*0101): > 37.8 µM
IC50 (DRB4*0101): 6.39 µM
IC50 (DRB1*0901): > 20 µM
IC50 (DRB1*1201): 10.7 µM
IC50 (DRB3*0101): 0.035 µM
IC50 (DRB1*0802): > 20 µM
IC50 (DRB1*1101; Binding affinity DRB1 *1101): > 20 µM
IC50 (DRB1*1101; DRB1*1101): > 18.9 µM

GQRVPVSHSFPHPLY [Peptide 68.0005]
IC50 (DR4w4 (DRB1*0401)): > 20 µM
IC50 (DRB5*0101; Binding affinity DRB5 *0101): > 20 µM
IC50 (DRB1*1201): 5.51 µM
IC50 (DRB3*0101): > 20 µM
IC50 (DRB1*0802): > 20 µM
IC50 (DRB1*1101; Binding affinity DRB1 *1101): > 20 µM

GRAVCGGVLVHPQWV [Peptide 68.0062]
IC50 (DR4w4 (DRB1*0401)): > 20 µM
IC50 (DRB1*1201): 16.4 µM
IC50 (DRB3*0101): > 20 µM
IC50 (DRB1*0802): > 20 µM
IC50 (DRB1*1101; Binding affinity DRB1 *1101): > 20 µM

KSRLQGGVLVNEILN [Peptide 68.0046]
IC50 (DRB1*1501): > 20 µM
IC50 (DR4w4 (DRB1*0401)): > 20 µM
IC50 (DRB5*0101; Binding affinity DRB5 *0101): > 20 µM
IC50 (DRB1*1201): 9.6 µM
IC50 (DRB3*0101): > 20 µM
IC50 (DRB1*0802): > 20 µM
IC50 (DRB1*1101; Binding affinity DRB1 *1101): > 20 µM

LSGLHGQDLFGIWSK [Peptide 68.0040]
IC50 (DRB1*1501): > 20 µM
IC50 (DR4w4 (DRB1*0401)): > 20 µM
IC50 (DR7 (DRB1*0701)): > 20 µM
IC50 (DRB1*1302): > 20 µM
IC50 (DRB5*0101; Binding affinity DRB5 *0101): > 20 µM
IC50 (DRB1*0901): > 20 µM
IC50 (DRB1*1201): 7.89 µM
IC50 (DRB3*0101): > 20 µM
IC50 (DRB1*0802): > 20 µM
IC50 (DRB1*1101; Binding affinity DRB1 *1101): > 20 µM

PEEFLRPRSLQCVSL [Peptide 68.0015]
IC50 (DR4w4 (DRB1*0401)): > 20 µM
IC50 (DRB5*0101; Binding affinity DRB5 *0101): > 20 µM
IC50 (DRB1*1201): 6.02 µM
IC50 (DRB3*0101): > 20 µM

QWVLTAAHCLKKNSQ [Peptide 68.0004]
IC50 (DRB1*1501): > 20 µM
IC50 (DR4w4 (DRB1*0401)): > 20 µM
IC50 (DRB1*1302): > 20 µM
IC50 (DRB1*1201): > 20 µM
IC50 (DRB3*0101): > 20 µM
IC50 (DRB1*0802): > 20 µM
